Like-named read-outs stand apart in the source and are kept apart here.
Experiments:
Dvl–CXXC5 interaction = target: T1, Dvl–CXXC5 interaction (Homo sapiens, UniProt O14640); assay: Dvl–CXXC5 in vitro binding assay (FITC PolyR-DBM competition)
T1 construct: plasmid DNA encoding Dvl-1247- 341 (the Dvl PDZ domain); His-tag (TEV-cleavable) (cleaved yes); made in house; host or cells: E. coli BL21 (DE3)
T1 sequence (O14640 247-341 limits assumed): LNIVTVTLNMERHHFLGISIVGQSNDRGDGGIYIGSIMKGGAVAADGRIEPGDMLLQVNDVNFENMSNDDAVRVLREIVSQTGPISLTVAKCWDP
Excerpt: We tried to search small‐molecule drug candidates activating the Wnt/β‐catenin signaling on the basis of the previous study (Kim et al, 2015). To screen small molecules inhibiting the Dvl–CXXC5 interaction, an in vitro assay system (Fig 1A) was established using purified recombinant Dvl PDZ domain and FITC‐conjugated PolyR‐DBM (Dvl binding motif) (Kim et al, 2015). A chemical with inhibitory activity of Dvl–CXXC5 interaction competes with the FITC‐conjugated peptide for binding to Dvl PDZ domain, which results in a decrease in fluorescence intensity of the well containing the chemical (Fig 1A).
Figure 1 Identification and characterization of small molecules competing Dvl–CXXC5 binding in vitro • A A scheme for in vitro screening method of small molecules competing Dvl–CXXC5 binding. Briefly, purified Dvl PDZ domain was attached to the polystyrene surface of each well of 96‐well plates. Then, PolyR‐DBM (polyarginine‐conjugated Dvl binding motif tagged with FITC) (Kim et al, 2015) was added to each well and allowed to bind to the Dvl PDZ domain; 10 μM small‐molecule compound was added to each well, and the compounds competing with Dvl PZD‐PolyR‐DBM binding were measured by a microplate reader to screen the compounds reducing fluorescence signal. • B Screening results of compounds competing Dvl–CXXC5 interaction. Each 2 μM of the compounds was used for competing as described in Fig 1A. (n = 3) • C, D Primary calvaria cells were treated with 2 μM of each compound for 2 days. The cells were subjected to immunofluorescence analyses to visualize β‐catenin (C; green). The relative numbers of β‐catenin‐positive nuclei were counted (D). (n = 3) • E, F The calvariae from 4‐day‐old mice were cultured ex vivo for 7 days with 2 μM of each compound. Representative calvaria sections were visualized by H&E staining (E). The calvaria thicknesses were measured from the images using Image Pro software (F). (n = 3) Data Information: For B, D, and F, the data are the mean ± s.d. (error bars), and significance was assessed using unpaired Student's t‐test.
For the Dvl–CXXC5 in vitro binding assay, 100 μl of 5 mg/ml purified Dvl PDZ domain was added into each well of a 96‐well Maxibinding Immunoplate (SPL, Seoul, Korea) and incubated overnight in a 4°C chamber. […] After washing with PBS, the fluorescence of each well was measured using a Fluorstar Optima microplate reader (BGM Lab Technologie, Ortenberg, Germany). […]
a The Dvl-CXXC5 in vitro binding assay was performed with 0.1, 1, 3, 10, 30 and 100 µ M of each compound. The IC50 values were calculated using linear regression. b MC3T3E1 cells were cultured in differentiation media with 10 µM of each compound for 4 days and ALP activity levels were quantified to monitor osteogenic differentiation of the cells. […]

MC3T3E1 cells = assay: Relative ALP activity in MC3T3E1 cells; assay type: cell-based, murine; conditions: differentiation media, 10 M of each compound, 4 days
Excerpt: Railo et Rev: [NT] al, 2009 Fos-like antigen 1 […] et al, 2003 WNT1 inducible [NT] Railo et signaling pathway Rev: [NT] al, 2009 protein 1 (Wis p1) Activating […] transcription factor Rev: […], 4 (Atf 4) 2007 Cyclin-dependent [NT] Donovan TGFβ kinase inhibitor 1B Rev: [NT] et al, 2002 (Cdkn1b) […] membrane Rev: […], protein 1 (Emp1) 2007 8

Dvl PDZ domain = target: T2, Dvl PDZ domain (Homo sapiens, UniProt O14640); assay: Surface plasmon resonance; assay type: binding
T2 construct: plasmid DNA encoding Dvl-1247- 341 (the Dvl PDZ domain); His-tag (TEV-cleavable) (cleaved yes); made in house; host or cells: E. coli BL21 (DE3)
T2 sequence (O14640 247-341 limits assumed): T1 sequence (O14640 247-341 limits assumed)
Description: Studies on the interaction between compounds and Dvl PDZ domain were performed by surface plasmon resonance spectroscopy using the ProteOn™ XPR36 protein interaction array system (Bio‐Rad Laboratories, Inc., Hercules, CA). Purified Dvl PDZ domain was immobilized on a sensor chip, and then, various concentration of KY‐02327 in ProteOn PBS/Tween running buffer (PBS, pH 7.4 with 0.05% Tween 20) was flowed over the chip at a flow rate of 100 μl/min. The refractive index reflecting the mass concentration on the sensor surface is measured according to the manufacturer's instruction. Data were analyzed using ProteOn Manager Software 2.0 (Bio‐Rad Laboratories, Inc.).

[1] = target: Human Ether-à-go-go Related Gene (hERG) potassium channel (Homo sapiens, UniProt Q12809); assay: hERG binding assay (fluorescence polarization)
Chain of Human Ether-à-go-go Related Gene (hERG) potassium channel (Q12809 whole entry): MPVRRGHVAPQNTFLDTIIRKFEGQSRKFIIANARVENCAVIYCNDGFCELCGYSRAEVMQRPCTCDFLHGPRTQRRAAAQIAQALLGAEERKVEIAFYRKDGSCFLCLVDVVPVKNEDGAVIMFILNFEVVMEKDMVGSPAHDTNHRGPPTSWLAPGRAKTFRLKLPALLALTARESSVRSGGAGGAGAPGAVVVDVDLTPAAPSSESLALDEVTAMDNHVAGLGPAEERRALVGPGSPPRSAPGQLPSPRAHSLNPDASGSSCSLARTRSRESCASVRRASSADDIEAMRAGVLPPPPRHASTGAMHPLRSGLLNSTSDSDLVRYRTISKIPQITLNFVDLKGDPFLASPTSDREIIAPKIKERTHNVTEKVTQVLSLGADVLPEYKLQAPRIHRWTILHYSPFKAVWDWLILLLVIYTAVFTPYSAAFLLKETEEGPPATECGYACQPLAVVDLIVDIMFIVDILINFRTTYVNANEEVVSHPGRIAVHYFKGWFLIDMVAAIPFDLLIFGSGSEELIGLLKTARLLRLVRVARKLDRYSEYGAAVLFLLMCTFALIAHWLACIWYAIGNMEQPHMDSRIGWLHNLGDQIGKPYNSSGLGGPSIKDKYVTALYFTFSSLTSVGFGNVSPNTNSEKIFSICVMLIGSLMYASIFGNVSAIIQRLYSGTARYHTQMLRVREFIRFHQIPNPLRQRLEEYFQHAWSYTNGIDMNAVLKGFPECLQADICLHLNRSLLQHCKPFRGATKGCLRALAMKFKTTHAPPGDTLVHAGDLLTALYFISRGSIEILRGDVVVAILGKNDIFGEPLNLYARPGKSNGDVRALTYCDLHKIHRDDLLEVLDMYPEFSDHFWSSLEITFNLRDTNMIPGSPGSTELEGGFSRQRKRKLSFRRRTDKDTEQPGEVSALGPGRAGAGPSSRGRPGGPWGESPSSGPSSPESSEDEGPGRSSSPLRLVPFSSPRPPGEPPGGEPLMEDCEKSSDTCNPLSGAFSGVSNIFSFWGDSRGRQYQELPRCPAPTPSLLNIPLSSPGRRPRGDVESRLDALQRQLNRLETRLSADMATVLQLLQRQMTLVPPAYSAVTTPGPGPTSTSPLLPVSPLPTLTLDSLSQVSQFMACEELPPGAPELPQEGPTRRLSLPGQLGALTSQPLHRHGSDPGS

[2] = tested on: mouse embryonic fibroblast (MEF) cells; assay: qRT-PCR of pathway-specific target genes in MEF cells (off-target); assay type: cell-based; conditions: 12 hours
Description: To evaluate off‐target effects of KY‐02327, we monitored the transcriptional regulation of target genes of major cell signaling pathways in KY‐02327‐treated mouse embryonic fibroblast (MEF) cells (Appendix Table S2 and Appendix Fig S5). […] However, the target genes of other pathways were unaffected by the treatment of KY‐02327 (Appendix Fig S5B‐J). […]
on mouse embryonic fibroblast cells for 12 hours. The mRNA level of pathway-specific target genes (Appendix Table S2) was measured by quantitative real-time […]
Data Information: The data are the mean ± s.d. (error bars), and significance was assessed using unpaired Student’s t-test. [n =3]

Structure (SMILES)	reduction of fluorescence intensity (Dvl–CXXC5 interaction; 2 μM compound)	IC50 (Dvl–CXXC5 interaction; read-out: 50% inhibition concentration (IC50) of Dvl–CXXC5 interaction)	Relative ALP activity (%) (MC3T3E1 cells)	IC50 (Dvl–CXXC5 interaction; 0.1, 1, 3, 10, 30 and 100 µM of each compound, linear regression, read-out: Dvl-CXXC5 in vitro binding IC50)	IC50 for inhibition of Dvl–CXXC5 interaction, fold lower than for KY‐02061 (Dvl–CXXC5 interaction; vs KY‐02061)	binding to Dvl PDZ domain by surface plasmon resonance (Dvl PDZ domain)	cardiotoxicity (hERG potassium channel inhibition test) [1]	mRNA levels of Wnt/β‐catenin target genes [2]	target genes of other pathways (off-target) [2]
CCOC(=O)Cn1c(C(=O)OCC)cc2cc(OS(=O)(=O)c3ccc(C)cc3)ccc21 [KY‐02061]	43.7%	24 µM	173%	–	–	–	–	–	–
CCOC(=O)c1cc2cc(O)ccc2n1CC(=O)NCCN1CCCCC1 [KY‐02327]	–	–	227%	3.1 µM	7.7 fold	binds with Dvl PDZ domain in a dose‐dependent manner	did not show any significant cardiotoxicity	significantly increased	unaffected
